Measured values reported in the supplement of paper PMC11208160.

Assay: recombinant UMI read abundance after kanamycin selection (control-corrected) (log10(CPM+1)); higher = more efficient recombination; extreme values may be limits of the assay; sequences stand for … in AGTGCAGAGAAAATCGGCCAGTTTTCTCTGCCTGCAGTCCGCATGCCGTGGGACCCCTTGGGTTCTAACCTGTTGCCTAGATTTATGCAGCGGACTGCCTTTCTCCCAAAGTGATAAACCGG…AGGTTGGTTTCACT; site = the 11-nt donor
Summary of the method: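 Sequencing read counts were converted to CPM, averaged over two replicates and scaled by control-derived factors. Results are given as log10(CPM+1). The reads covered the donor–target junction of recombinant UMIs from a pooled Escherichia coli screen of donor and donor-binding-loop pairs for the IS621 bridge recombinase.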
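Note: IS621 bridge recombinase in Escherichia coli cells against a fixed T5 target plasmid.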

Row | Sequence | recombinant UMI read abundance (log10)
1 | GAGGAATCATGGACCGGTTTTCCCGGTAATCCGTATTTGCG (site GAGGAATCTCG) | 2.47
2 | GAGGAATCATGGACCGGTTTTCCCGGTAATCCGTATTTGCG (site TAGGAATCTCG) | 2.25
3 | GAGGACGCATGGACCGGTTTTCCCGGTAATCCGTATTTGAG (site GAGGACGCTCT) | 1.9
4 | GAGGAGACATGGACCGGTTTTCCCGGTAATCCGTATTTGCC (site GAGGAGACTGG) | 1.22
5 | GAGGCACCATGGACCGGTTTTCCCGGTAATCCGTATTTGCA (site GAGGCACCTTG) | 0.344
6 | GAGGCACCATGGACCGGTTTTCCCGGTAATCCGTATTTGCA (site GCGGCACCTTG) | 0
7 | GAGGCACCATGGACCGGTTTTCCCGGTAATCCGTATTTGCA (site GGGGCACCTTG) | 0
8 | GAGGCACCATGGACCGGTTTTCCCGGTAATCCGTATTTGCA (site GTGGCACCTTG) | 0
9 | GAGGCCTCATGGACCGGTTTTCCCGGTAATCCGTATTTGAG (site GAGGCCTCTCT) | 1.42
10 | GAGGTGGCATGGACCGGTTTTCCCGGTAATCCGTATTTGGC (site GAGGTGGCTGC) | 2.13
11 | GAGTACGCATGGACCGGTTTTCCCGGTAATCCGTATTTGAT (site GAGTACGCTAT) | 1.99
12 | GAGTAGTCATGGACCGGTTTTCCCGGTAATCCGTATTTGGA (site GAGTAGTCTTC) | 2.7
13 | GAGTCAGCATGGACCGGTTTTCCCGGTAATCCGTATTTGCC (site GAGTCAGCTGG) | 1.07
14 | GAGTTCACATGGACCGGTTTTCCCGGTAATCCGTATTTGAT (site GAGATCACTAT) | 0.00366
15 | GAGTTCACATGGACCGGTTTTCCCGGTAATCCGTATTTGAT (site GAGCTCACTAT) | 0.905
16 | GAGTTCACATGGACCGGTTTTCCCGGTAATCCGTATTTGAT (site GAGGTCACTAT) | 0
17 | GAGTTCACATGGACCGGTTTTCCCGGTAATCCGTATTTGAT (site GAGTTCACTAT) | 1.69
18 | GAGTTGTCATGGACCGGTTTTCCCGGTAATCCGTATTTGTT (site GAGTTGTCTAA) | 2.01
19 | GATAAACCATGGACCGGTTTTCCCGGTAATCCGTATTTGGT (site GAAAAACCTAC) | 0

Row | Sequence | recombinant UMI read abundance (log10)
20 | GATAAACCATGGACCGGTTTTCCCGGTAATCCGTATTTGGT (site GACAAACCTAC) | 0
21 | GATAAACCATGGACCGGTTTTCCCGGTAATCCGTATTTGGT (site GAGAAACCTAC) | 0
22 | GATAAACCATGGACCGGTTTTCCCGGTAATCCGTATTTGGT (site GATAAACCTAC) | 0
23 | GATAAAGCATGGACCGGTTTTCCCGGTAATCCGTATTTGGG (site GATAAAGCTCC) | 0.172
24 | GATACCACATGGACCGGTTTTCCCGGTAATCCGTATTTGCC (site GATACCACTGG) | 1.33
25 | GATACTGCATGGACCGGTTTTCCCGGTAATCCGTATTTGCC (site GATACTGCTGG) | 0.895
26 | GATACTGCATGGACCGGTTTTCCCGGTAATCCGTATTTGCC (site GCTACTGCTGG) | 0.748
27 | GATACTGCATGGACCGGTTTTCCCGGTAATCCGTATTTGCC (site GGTACTGCTGG) | 1.73
28 | GATACTGCATGGACCGGTTTTCCCGGTAATCCGTATTTGCC (site GTTACTGCTGG) | 1.4
29 | GATAGACCATGGACCGGTTTTCCCGGTAATCCGTATTTGGC (site GATAGACCTGC) | 0
30 | GATAGCACATGGACCGGTTTTCCCGGTAATCCGTATTTGCG (site GATAGCACTCG) | 0.578
31 | GATAGGACATGGACCGGTTTTCCCGGTAATCCGTATTTGAC (site GATAGGACTGT) | 2.34
32 | GATAGGACATGGACCGGTTTTCCCGGTAATCCGTATTTGAC (site GATCGGACTGT) | 0.114
33 | GATAGGACATGGACCGGTTTTCCCGGTAATCCGTATTTGAC (site GATGGGACTGT) | 0.531
34 | GATAGGACATGGACCGGTTTTCCCGGTAATCCGTATTTGAC (site GATTGGACTGT) | 0.386
35 | GATAGGACATGGACCGGTTTTCCCGGTAATCCGTATTTGTT (site GATAGGACTAA) | 1.43
36 | GATCATACATGGACCGGTTTTCCCGGTAATCCGTATTTGCT (site GATCATACTAG) | 1.82
37 | GATCCCGCATGGACCGGTTTTCCCGGTAATCCGTATTTGTC (site GATCCCGCTGA) | 0.846
38 | GATCCGGCATGGACCGGTTTTCCCGGTAATCCGTATTTGAT (site GATCCGGCTAT) | 0.0999

Row | Sequence | recombinant UMI read abundance (log10)
39 | GATGATCCATGGACCGGTTTTCCCGGTAATCCGTATTTGCT (site GATAATCCTAG) | 0
40 | GATGATCCATGGACCGGTTTTCCCGGTAATCCGTATTTGCT (site GATCATCCTAG) | 0
41 | GATGATCCATGGACCGGTTTTCCCGGTAATCCGTATTTGCT (site GATGATCCTAG) | 0
42 | GATGATCCATGGACCGGTTTTCCCGGTAATCCGTATTTGCT (site GATTATCCTAG) | 0
43 | GATGATTCATGGACCGGTTTTCCCGGTAATCCGTATTTGTT (site GAAGATTCTAA) | 0.433
44 | GATGATTCATGGACCGGTTTTCCCGGTAATCCGTATTTGTT (site GACGATTCTAA) | 0
45 | GATGATTCATGGACCGGTTTTCCCGGTAATCCGTATTTGTT (site GAGGATTCTAA) | 0
46 | GATGATTCATGGACCGGTTTTCCCGGTAATCCGTATTTGTT (site GATGATTCTAA) | 1.79
47 | GATGCCTCATGGACCGGTTTTCCCGGTAATCCGTATTTGTT (site GATGCCTCTAA) | 0.895
48 | GATGGCTCATGGACCGGTTTTCCCGGTAATCCGTATTTGCC (site GATGGCTCTGG) | 2.65
49 | GATGGTTCATGGACCGGTTTTCCCGGTAATCCGTATTTGAT (site GATGGTTCTAT) | 1.58
50 | GATGTGTCATGGACCGGTTTTCCCGGTAATCCGTATTTGAC (site AATGTGTCTGT) | 1.67
51 | GATGTGTCATGGACCGGTTTTCCCGGTAATCCGTATTTGAC (site CATGTGTCTGT) | 0.736
52 | GATGTGTCATGGACCGGTTTTCCCGGTAATCCGTATTTGAC (site GATGTGTCTGT) | 2.61
53 | GATGTGTCATGGACCGGTTTTCCCGGTAATCCGTATTTGAC (site TATGTGTCTGT) | 0.677
54 | GATTACCCATGGACCGGTTTTCCCGGTAATCCGTATTTGAG (site GATTACCCTCT) | 0.03
55 | GATTACCCATGGACCGGTTTTCCCGGTAATCCGTATTTGCT (site GATTAACCTAG) | 0
56 | GATTACCCATGGACCGGTTTTCCCGGTAATCCGTATTTGCT (site GATTACCCTAG) | 0
57 | GATTACCCATGGACCGGTTTTCCCGGTAATCCGTATTTGCT (site GATTAGCCTAG) | 0
